Patent publication US7625841B2, “Substituted thiene-3-ylsulphonylamino(thio)carbonyltriazolin(ethi)ones” (Bayer CropScience AG, priority 2001, dated 2009)

How the values were obtained:
Type in all cases: in vivo
weeds [1] = test: Post-emergence test, summary for weeds
Protocol: (§1) • Solvent: 5 parts by weight of acetone • Emulsifier: 1 part by weight of alkylaryl polyglycol ether
(§2) To produce a suitable preparation of active compound, 1 part by weight of active compound is mixed with the stated amount of solvent, the stated amount of emulsifier is added and the concentrate is diluted with water to the desired concentration.
(§3) Test plants of a height of 5-15 cm are sprayed with the preparation of active compound such that the particular amounts of active compound desired are applied per unit area. The concentration of the spray liquor is chosen such that the particular amounts of active compound desired are applied in 1000 l of water/ha.
(§4) After three weeks, the degree of damage to the plants is rated in % damage in comparison to the development of the untreated control.
(§5) The figures denote: • 0%=no effect (like untreated control) • 100%=total destruction

Setaria [2] = test: Pre-emergence test/greenhouse; conditions: greenhouse, application rate 15 gai/ha, rated after three weeks, 0%=no effect, 100%=total destruction
Protocol: as §1
(§6) To produce a suitable preparation of active compound, 1 part by weight of active compound is mixed with the stated amount of solvent, the stated amount of emulsifier is added and the concetrate is diluted with water to the desired concentration.
(§7) Seeds of the test plants are sown in normal soil. After 24 hours, the soil is sprayed with the preparation of active compound such that the particular amount of active compound desired is applied per unit area. The concentration of active compound in the spray liquor is chosen such that the particular amount of active compound desired is applied in 1000 litres of water per hectare.
(§8) After three weeks, the degree of damage to the plants is rated in % damage in comparison to the development of the untreated control. The figures denote: • 0%=no effect (like untreated control) • 100%=total destruction

wheat [3] = test: Pre-emergence test/greenhouse; conditions: greenhouse, application rate 15 gai/ha, rated after three weeks, 0%=no effect, 100%=total destruction
Protocol: as §1, §6, §7, §8

Amaranthus = test: Pre-emergence test/greenhouse; conditions: greenhouse, application rate 15 gai/ha, rated after three weeks, 0%=no effect, 100%=total destruction
Protocol: as §1, §6, §7, §8

soybeans = test: Pre-emergence test/greenhouse; conditions: greenhouse, application rate 15 gai/ha, rated after three weeks, 0%=no effect, 100%=total destruction
Protocol: as §1, §6, §7, §8

Alopecurus [4] = test: Pre-emergence test/greenhouse; conditions: greenhouse, application rate 15 gai/ha, rated after three weeks, 0%=no effect, 100%=total destruction
Protocol: as §1, §6, §7, §8

Matricaria = test: Pre-emergence test/greenhouse; conditions: greenhouse, application rate 15 gai/ha, rated after three weeks, 0%=no effect, 100%=total destruction
Protocol: as §1, §6, §7, §8

maize [5] = test: Pre-emergence test/greenhouse; conditions: greenhouse, application rate 15 gai/ha, rated after three weeks, 0%=no effect, 100%=total destruction
Protocol: as §1, §6, §7, §8

Stellaria = test: Pre-emergence test/greenhouse; conditions: greenhouse, application rate 15 gai/ha, rated after three weeks, 0%=no effect, 100%=total destruction
Protocol: as §1, §6, §7, §8

[6] = system: crop plants, such as, for example, maize, soyabean and wheat; test: Pre-emergence test, summary for crop plants
Protocol: as §1, §6, §7, §8

[7] = system: crop plants such as, for example, maize, oilseed rape and wheat; test: Post-emergence test, summary for crop plants
Protocol: as §1, §2, §3, §4, §5

weeds [8] = test: Pre-emergence test, summary for weeds
Protocol: as §1, §6, §7, §8

Setaria [9] = test: Post-emergence test/greenhouse; conditions: greenhouse, application rate 15 gai/ha, rated after three weeks, 0%=no effect, 100%=total destruction
Protocol: as §1, §2, §3, §4, §5

Lolium [10] = test: Post-emergence test/greenhouse; conditions: greenhouse, application rate 15 gai/ha, rated after three weeks, 0%=no effect, 100%=total destruction
Protocol: as §1, §2, §3, §4, §5

Alopecurus [11] = test: Post-emergence test/greenhouse; conditions: greenhouse, application rate 15 gai/ha, rated after three weeks, 0%=no effect, 100%=total destruction
Protocol: as §1, §2, §3, §4, §5

Echinochloa = test: Post-emergence test/greenhouse; conditions: greenhouse, application rate 15 gai/ha, rated after three weeks, 0%=no effect, 100%=total destruction
Protocol: as §1, §2, §3, §4, §5

Avena fatua [12] = test: Post-emergence test/greenhouse; conditions: greenhouse, application rate 15 gai/ha, rated after three weeks, 0%=no effect, 100%=total destruction
Protocol: as §1, §2, §3, §4, §5

maize [13] = test: Post-emergence test/greenhouse; conditions: greenhouse, application rate 15 gai/ha, rated after three weeks, 0%=no effect, 100%=total destruction
Protocol: as §1, §2, §3, §4, §5

Digitaria = test: Post-emergence test/greenhouse; conditions: greenhouse, application rate 15 gai/ha, rated after three weeks, 0%=no effect, 100%=total destruction
Protocol: as §1, §2, §3, §4, §5

Bromus [14] = test: Post-emergence test/greenhouse; conditions: greenhouse, application rate 15 gai/ha, rated after three weeks, 0%=no effect, 100%=total destruction
Protocol: as §1, §2, §3, §4, §5

Lolium [15] = test: Pre-emergence test/greenhouse; conditions: greenhouse, application rate 15 gai/ha, rated after three weeks, 0%=no effect, 100%=total destruction
Protocol: as §1, §6, §7, §8

Polygonum = test: Pre-emergence test/greenhouse; conditions: greenhouse, application rate 15 gai/ha, rated after three weeks, 0%=no effect, 100%=total destruction
Protocol: as §1, §6, §7, §8

Avena fatua [16] = test: Pre-emergence test/greenhouse; conditions: greenhouse, application rate 15 gai/ha, rated after three weeks, 0%=no effect, 100%=total destruction
Protocol: as §1, §6, §7, §8

Viola = test: Post-emergence test/greenhouse; conditions: greenhouse, application rate 15 gai/ha, rated after three weeks, 0%=no effect, 100%=total destruction
Protocol: as §1, §2, §3, §4, §5

Xanthium = test: Post-emergence test/greenhouse; conditions: greenhouse, application rate 15 gai/ha, rated after three weeks, 0%=no effect, 100%=total destruction
Protocol: as §1, §2, §3, §4, §5

Solanum = test: Pre-emergence test/greenhouse; conditions: greenhouse, application rate 15 gai/ha, rated after three weeks, 0%=no effect, 100%=total destruction
Protocol: as §1, §6, §7, §8

wheat [17] = test: Post-emergence test/greenhouse; conditions: greenhouse, application rate 15 gai/ha, rated after three weeks, 0%=no effect, 100%=total destruction
Protocol: as §1, §2, §3, §4, §5

Bromus [18] = test: Pre-emergence test/greenhouse; conditions: greenhouse, application rate 15 gai/ha, rated after three weeks, 0%=no effect, 100%=total destruction
Protocol: as §1, §6, §7, §8

Row | SMILES | activity against weeds compared with the known compounds (A) and (B) (weeds [1]) | degree of damage to the plants, wheat (wheat [3]) | degree of damage to the plants, Amaranthus (Amaranthus) | degree of damage to the plants, Alopecurus (Alopecurus [4]) | degree of damage to the plants, Matricaria (Matricaria) | degree of damage to the plants, maize (maize [5]) | degree of damage to the plants, Stellaria (Stellaria) | tolerance by crop plants [6] | compatibility with crop plants compared with the known compounds (A) and (B) [7] | activity against weeds compared with the known compounds (A) to (G) (weeds [8]) | degree of damage to the plants, Setaria (Setaria [9]) | degree of damage to the plants, Lolium (Lolium [10]) | degree of damage to the plants, Alopecurus (Alopecurus [11]) | degree of damage to the plants, Echinochloa (Echinochloa) | degree of damage to the plants, Avena fatua (Avena fatua [12]) | degree of damage to the plants, Digitaria (Digitaria) | degree of damage to the plants, Bromus (Bromus [14]) | degree of damage to the plants, Lolium (Lolium [15]) | degree of damage to the plants, Polygonum (Polygonum) | degree of damage to the plants, Viola (Viola) | further results
1 | COCc1nn(C(=O)NS(=O)(=O)c2c(C(=O)OC)csc2C)c(=O)n1C [Example 18] | considerably stronger activity against weeds | 0% | 95% | 95% | 100% | 0% | 95% | tolerated well by crop plants | substantially better compatibility with crop plants | considerably stronger activity against weeds | 100% | 95% | 95% | 95% | 95% | 95% | 80% | – | – | – | degree of damage to the plants, Setaria (Setaria [2]): 95%; degree of damage to the plants, soybeans (soybeans): 0%; degree of damage to the plants, maize (maize [13]): 0%
2 | CCCc1nn(C(=O)NS(=O)(=O)c2c(C(=O)OC)csc2C)c(=O)n1C1CC1 [Example 48] | considerably stronger activity against weeds | – | 100% | – | 95% | – | 100% | tolerated well by crop plants | substantially better compatibility with crop plants | considerably stronger activity against weeds | 80% | 100% | – | 95% | 90% | 90% | – | 95% | 95% | 95% | degree of damage to the plants, Avena fatua (Avena fatua [16]): 95%; degree of damage to the plants, Xanthium (Xanthium): 90%
3 | CCc1nn(C(=O)NS(=O)(=O)c2c(C(=O)OC)csc2C)c(=O)n1C1CC1 [Example 47] | considerably stronger activity against weeds | – | 100% | – | 100% | – | 100% | tolerated well by crop plants | substantially better compatibility with crop plants | considerably stronger activity against weeds | 90% | 100% | – | 95% | 95% | 90% | 80% | 80% | 90% | 100% | degree of damage to the plants, Setaria (Setaria [2]): 95%; degree of damage to the plants, Avena fatua (Avena fatua [16]): 95%; degree of damage to the plants, Xanthium (Xanthium): 80%
4 | CCSc1nn(C(=O)NS(=O)(=O)c2c(C(=O)OC)csc2C)c(=O)n1C [Example 20] | considerably stronger activity against weeds | 0% | 95% | 90% | 100% | 0% | 100% | tolerated well by crop plants | substantially better compatibility with crop plants | considerably stronger activity against weeds | – | – | 90% | 100% | – | – | 80% | 95% | – | 100% | degree of damage to the plants, soybeans (soybeans): 0%; degree of damage to the plants, Solanum (Solanum): 100%; degree of damage to the plants, wheat (wheat [17]): 0%
5 | COC(=O)c1csc(C)c1S(=O)(=O)NC(=O)n1nc(C2CC2)n(C)c1=O [Example 22] | considerably stronger activity against weeds | 0% | – | 95% | – | 0% | 100% | tolerated well by crop plants | substantially better compatibility with crop plants | considerably stronger activity against weeds | 90% | – | 99% | – | 80% | 95% | 95% | 95% | 95% | – | degree of damage to the plants, Solanum (Solanum): 100%; degree of damage to the plants, Bromus (Bromus [18]): 100%; degree of damage to the plants, wheat (wheat [17]): 0%; degree of damage to the plants, maize (maize [13]): 0%
